Measured values as given in paper PMC8130918 (PLoS Pathogens, 2021).
Where “and” joins values, the source holds several entries; their conditions need not be identical. Identical values can stand only once.

Columns and labels:
[1] = target: RSV MTase-CTD (Human respiratory syncytial virus A, UniProt P28887); experiment: MTase activity inhibition, filter-binding assay (3H-methyl transfer from SAM to GpppG-RSV9 RNA); format: biochemical; conditions: for IC50: 25 nM RSV MTase-CTD, 0.7 μM GpppG-RSV9 RNA, 2 μM SAM, pH 7.5, 30°C, Hill slope curve-fitting
RSV MTase-CTD, sequence (P28887 1755-2165): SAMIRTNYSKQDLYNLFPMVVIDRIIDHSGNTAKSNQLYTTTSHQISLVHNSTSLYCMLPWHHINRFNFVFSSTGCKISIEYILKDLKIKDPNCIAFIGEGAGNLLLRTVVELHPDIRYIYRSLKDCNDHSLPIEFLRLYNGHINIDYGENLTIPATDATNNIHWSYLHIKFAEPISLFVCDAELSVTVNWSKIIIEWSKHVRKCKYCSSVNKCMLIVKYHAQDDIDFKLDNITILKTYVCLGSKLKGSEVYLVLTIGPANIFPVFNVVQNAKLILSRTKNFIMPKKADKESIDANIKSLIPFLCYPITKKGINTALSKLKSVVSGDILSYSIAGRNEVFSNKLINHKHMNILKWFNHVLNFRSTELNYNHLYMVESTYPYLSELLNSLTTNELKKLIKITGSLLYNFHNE

[2] = target: RSV L-P complex (Human respiratory syncytial virus A, UniProt P28887); experiment: MTase activity inhibition, filter-binding assay with the RSV L-P complex; format: biochemical, human RSV (strain A2); conditions: 60 nM RSV L-P complex, 1.8 μM GpppG-RSV9 RNA, 0.17 μM SAM and 0.8 μM 3H-SAM, pH 7.5, 30°C
RSV L-P complex, sequence (P03421 whole entry): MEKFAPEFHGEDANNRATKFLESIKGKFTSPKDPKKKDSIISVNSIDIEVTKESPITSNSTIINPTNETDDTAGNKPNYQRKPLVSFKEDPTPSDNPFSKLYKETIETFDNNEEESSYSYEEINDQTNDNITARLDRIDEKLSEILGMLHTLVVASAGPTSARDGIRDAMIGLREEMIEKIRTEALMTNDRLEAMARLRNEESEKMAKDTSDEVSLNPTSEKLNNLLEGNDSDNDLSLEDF
RSV L-P complex, sequence (P28887 whole entry): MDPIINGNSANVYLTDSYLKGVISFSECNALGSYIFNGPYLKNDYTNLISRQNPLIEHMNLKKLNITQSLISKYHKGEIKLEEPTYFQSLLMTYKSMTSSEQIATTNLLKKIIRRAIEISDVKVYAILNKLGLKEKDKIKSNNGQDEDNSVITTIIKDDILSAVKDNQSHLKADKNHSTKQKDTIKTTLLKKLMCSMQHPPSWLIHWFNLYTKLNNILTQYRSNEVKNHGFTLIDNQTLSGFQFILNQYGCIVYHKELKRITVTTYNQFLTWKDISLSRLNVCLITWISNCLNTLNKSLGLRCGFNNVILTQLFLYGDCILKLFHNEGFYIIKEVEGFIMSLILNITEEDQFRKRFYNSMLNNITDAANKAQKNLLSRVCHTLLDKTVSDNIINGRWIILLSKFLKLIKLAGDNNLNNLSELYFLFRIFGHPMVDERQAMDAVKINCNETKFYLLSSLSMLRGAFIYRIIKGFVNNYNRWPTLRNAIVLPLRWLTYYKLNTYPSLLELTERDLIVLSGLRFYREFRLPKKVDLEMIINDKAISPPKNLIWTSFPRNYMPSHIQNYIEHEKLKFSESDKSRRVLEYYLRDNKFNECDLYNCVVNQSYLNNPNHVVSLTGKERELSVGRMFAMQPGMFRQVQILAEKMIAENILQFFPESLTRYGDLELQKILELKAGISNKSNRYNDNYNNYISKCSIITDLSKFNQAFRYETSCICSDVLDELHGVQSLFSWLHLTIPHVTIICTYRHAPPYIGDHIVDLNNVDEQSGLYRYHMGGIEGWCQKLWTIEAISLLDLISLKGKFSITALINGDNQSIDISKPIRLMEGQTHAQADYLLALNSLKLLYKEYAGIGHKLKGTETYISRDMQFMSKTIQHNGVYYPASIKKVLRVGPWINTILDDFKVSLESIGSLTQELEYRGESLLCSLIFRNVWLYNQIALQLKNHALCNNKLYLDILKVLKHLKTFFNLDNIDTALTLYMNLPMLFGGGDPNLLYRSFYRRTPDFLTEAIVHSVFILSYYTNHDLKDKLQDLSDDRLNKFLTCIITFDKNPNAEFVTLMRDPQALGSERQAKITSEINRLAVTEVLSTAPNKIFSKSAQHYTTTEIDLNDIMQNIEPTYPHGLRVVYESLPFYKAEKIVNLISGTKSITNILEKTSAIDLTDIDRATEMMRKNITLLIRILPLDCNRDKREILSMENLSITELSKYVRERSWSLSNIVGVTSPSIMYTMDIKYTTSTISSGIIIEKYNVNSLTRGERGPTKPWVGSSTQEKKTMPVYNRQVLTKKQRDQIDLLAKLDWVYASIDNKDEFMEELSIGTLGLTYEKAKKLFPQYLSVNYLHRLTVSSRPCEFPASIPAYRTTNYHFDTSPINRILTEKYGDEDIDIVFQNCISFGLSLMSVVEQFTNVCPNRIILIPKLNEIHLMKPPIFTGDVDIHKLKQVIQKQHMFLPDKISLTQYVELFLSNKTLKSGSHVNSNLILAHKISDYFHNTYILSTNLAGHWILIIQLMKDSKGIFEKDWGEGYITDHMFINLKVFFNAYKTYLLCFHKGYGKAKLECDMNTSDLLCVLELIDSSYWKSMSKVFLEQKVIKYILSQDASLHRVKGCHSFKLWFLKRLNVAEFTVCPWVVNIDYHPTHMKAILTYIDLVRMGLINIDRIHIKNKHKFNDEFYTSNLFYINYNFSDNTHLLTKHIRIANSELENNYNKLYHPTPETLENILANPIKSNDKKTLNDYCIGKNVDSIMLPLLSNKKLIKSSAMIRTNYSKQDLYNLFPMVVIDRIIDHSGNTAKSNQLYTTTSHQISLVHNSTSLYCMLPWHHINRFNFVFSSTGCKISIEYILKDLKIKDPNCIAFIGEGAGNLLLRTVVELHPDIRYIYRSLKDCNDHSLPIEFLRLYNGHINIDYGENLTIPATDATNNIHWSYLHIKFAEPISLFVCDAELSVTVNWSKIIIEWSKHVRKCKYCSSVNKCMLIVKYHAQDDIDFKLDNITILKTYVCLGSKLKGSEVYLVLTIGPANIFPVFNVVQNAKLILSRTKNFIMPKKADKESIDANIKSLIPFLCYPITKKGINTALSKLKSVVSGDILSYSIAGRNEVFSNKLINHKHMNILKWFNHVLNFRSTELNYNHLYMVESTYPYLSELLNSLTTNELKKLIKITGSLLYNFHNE

[3] = test system: RSV; experiment: Antiviral activity in cellular assay, replication of RSV in HeLa cells; format: cell-based, Respiratory syncytial virus; conditions: before toxicity
[4] = test system: VSV; conditions: BHK cells, plaque assay; read-out: half maximal effective concentration (EC50), VSV replication; cited from earlier work

Structure (SMILES) | inhibitory activity on RSV MTase-CTD compared with GpppG [1] | IC50 [2] | other results
Nc1nc2c(ncn2[C@@H]2O[C@H](COP(=O)(O)OP(=O)(O)OP(=O)(O)OC[C@H]3O[C@@H](n4cnc5c(N)ncnc54)[C@H](O)[C@@H]3O)[C@@H](O)[C@H]2O)c(=O)[nH]1 [GpppA] | lower inhibitory activity |  | 
Nc1nc2c(ncn2[C@@H]2O[C@H](COP(=O)(O)OP(=O)(O)OP(=O)(O)OC[C@H]3O[C@@H](n4cnc5c(=O)[nH]c(N)nc54)[C@H](O)[C@@H]3O)[C@@H](O)[C@H]2O)c(=O)[nH]1 [GpppG] |  |  | inhibition of the activity of the RSV MTase-CTD ([1]; […], methylation of GpppG-RSV9 RNA by FBA, 50 µM): 50%
Nc1ncnc2c1ncn2[C@@H]1O[C@H](CSCC[C@H](N)C(=O)O)[C@@H](O)[C@H]1O [SAH, S-adenosyl homocysteine] |  | 37.8 µM and ~37.8 µM | IC50 ([1]; 3 h): 24.7 µM and ~24.7 µM
Cn1c[n+]([C@@H]2O[C@H](COP(=O)(O)OP(=O)([O-])O)[C@@H](O)[C@H]2O)c2nc(N)[nH]c(=O)c21 [^mGDP] | lower inhibitory activity |  | 
C[n+]1cn(C2OC(COP(=O)([O-])OP(=O)(O)OP(=O)(O)OCC3OC(n4cnc5c(N)ncnc54)C(O)C3O)C(O)C2O)c2nc(N)[nH]c(=O)c21 (stereo not shown) [^mGpppA] | lower inhibitory activity |  | 
Nc1ncnc2c1ncn2[C@@H]1O[C@H](C[C@@H](N)CC[C@H](N)C(=O)O)[C@@H](O)[C@H]1O [sinefungin] |  | 9.8 µM and ~9.8 µM | IC50 [1]: 6.4 µM and ~6.4 µM; inhibition of replication of RSV [3]: did not show inhibition activity; EC50 [4]: 220 µM
